Laboratory results taken from US12383577B2, “Polysaccharide compound with a defined molecular structure that can eliminate the toxic side effects of chemotherapy drugs” (SHENZHEN YANDAI INVESTMENT CO., LTD, priority 2023, dated 2025).
Marks after values point to notes of the source that are not given here.

How the values were obtained:
LLC-bearing mice = experiment: Antitumor effect of GLP-2 combined with chemotherapy on LLC-bearing mice (tumor volume, tumor index, inhibition rates); assay type: in vivo, C57 mice
Protocol: Healthy LLC cells were inoculated subcutaneously into the left shoulder of 8 healthy male C57 mice. […] This suspension was then injected subcutaneously into the axilla of 52 healthy male C57 mice to establish a solid tumor model. Once all mouse tumors averaged a volume of about 180 mm3, mice were randomized into groups based on tumor volume and were administered the respective drugs or drug solvents via oral gavage or intraperitoneal injection for 18 consecutive days. Longest and shortest diameters of tumors were measured every three days to calculate tumor volume, and mouse weights were recorded every three days. At the end of the experiment, tumors, spleens, and thymuses were harvested and weighed to calculate tumor, spleen, and thymus indices. […] [table] […] Where TRTV is the relative tumor volume in the experimental group, and CRTV is the relative tumor volume in the model control group. Relative tumor volume (RTV)=Vt/V0, where Vt is the tumor volume on day t of dosing, and V0 is the tumor volume at the time of grouping. […] Where T represents the average tumor weight in the treatment group, and C represents the average tumor weight in the model control group. […] Spleen and thymus organ coefficients: After the last dose, spleen, thymus, and tumor weights are measured, and organ coefficients are calculated.

[1] = LLC-bearing mice study: mortality, survival time, body weight, spleen and thymus indices; assay type: in vivo, C57 mice
Protocol: Healthy LLC cells were inoculated subcutaneously into the left shoulder of 8 healthy male C57 mice. Once tumors reached a volume of 2,000-3,000 mm3, they were harvested and homogenized to prepare a homogenate suspension. This suspension was then injected subcutaneously into the axilla of 52 healthy male C57 mice to establish a solid tumor model. Once all mouse tumors averaged a volume of about 180 mm3, mice were randomized into groups based on tumor volume and were administered the respective drugs or drug solvents via oral gavage or intraperitoneal injection for 18 consecutive days. Longest and shortest diameters of tumors were measured every three days to calculate tumor volume, and mouse weights were recorded every three days. At the end of the experiment, tumors, spleens, and thymuses were harvested and weighed to calculate tumor, spleen, and thymus indices.
(§1) Spleen and thymus organ coefficients: After the last dose, spleen, thymus, and tumor weights are measured, and organ coefficients are calculated.

H22-bearing mice = experiment: Antitumor effect of GLP-2 combined with chemotherapy on H22-bearing mice (tumor volume, tumor index, inhibition rates); assay type: in vivo, C57 mice; conditions: for Tumor growth inhibition rate vs. the model control group: by tumor weight, cisplatin 3 mg/kg i.p. alone or + GLP-2 low dose 50 mg/kg oral
Protocol: A homogenate suspension of H22 mouse hepatoma was injected subcutaneously under the axilla of 45 healthy male C57 mice to create a solid tumor model. Once all mouse tumors averaged a volume of about 150 mm3, mice were randomized into groups based on tumor volume and were administered the respective drugs or drug solvents via oral gavage or intraperitoneal injection for 18 consecutive days. Longest and shortest diameters of tumors were measured every three days to calculate tumor volume, and mouse weights were recorded every three days. At the end of the experiment, tumors, spleens, and thymuses were harvested and weighed to calculate tumor, spleen, and thymus indices. […] [table] […] Where TRTV is the relative tumor volume in the experimental group, and CRTV is the relative tumor volume in the model control group. Relative tumor volume (RTV)=Vt/V0, where Vt is the tumor volume on day t of dosing, and V0 is the tumor volume at the time of grouping. […] Where T represents the average tumor weight in the treatment group, and C represents the average tumor weight in the model control group. […] Spleen and thymus organ coefficients: After the last dose, spleen, thymus, and tumor weights are measured, and organ coefficients are calculated.

[2] = H22-bearing mice study: mortality, survival time, body weight, spleen and thymus indices; assay type: in vivo, C57 mice
Protocol: A homogenate suspension of H22 mouse hepatoma was injected subcutaneously under the axilla of 45 healthy male C57 mice to create a solid tumor model. Once all mouse tumors averaged a volume of about 150 mm3, mice were randomized into groups based on tumor volume and were administered the respective drugs or drug solvents via oral gavage or intraperitoneal injection for 18 consecutive days. Longest and shortest diameters of tumors were measured every three days to calculate tumor volume, and mouse weights were recorded every three days. At the end of the experiment, tumors, spleens, and thymuses were harvested and weighed to calculate tumor, spleen, and thymus indices.
as §1

[3] = test system: orthotopic H22-bearing mice; experiment: Orthotopic H22-bearing mice: liver tumor by small animal in vivo imaging; design: species or system C57 mice; conditions: Kanglaite soft capsule 1404 mg/kg oral, GLP-2 low dose 130 mg/kg oral
Protocol: An additional 6 mice served as the normal control group. […] The proposed clinical dose for Kanglaite soft capsules is 0.45 g per capsule, 6 capsules per dose, 4 doses per day, which totals 10.8 g per day. […] This study used the proposed clinical dose as a basis for the experiment. […] [table] Tumor volume measurement: Tumor volume changes were measured weekly using small animal in vivo imaging technology.

[4] = Orthotopic H22-bearing mice study: mortality, body weight, organ coefficients; assay type: in vivo; conditions: Kanglaite soft capsule 1404 mg/kg oral, GLP-2 low dose 130 mg/kg oral
Description: (§2) An additional 6 mice served as the normal control group.

[5] = Orthotopic H22-bearing mice study: routine blood tests and liver/kidney function indicators; assay type: in vivo, C57 mice; conditions: blood after last dose, cisplatin 4 mg/kg i.p., Kanglaite soft capsule 1404 mg/kg oral, GLP-2 low dose 130 mg/kg oral
Protocol: as §2
Hematological tests: After the last dose, routine blood tests (WBC and RBC) and biochemical tests (liver and kidney functions) were performed.

[6] = test system: lymphocyte subtypes CD3+/CD4+ and CD3+/CD8+ in the blood; experiment: Orthotopic H22-bearing mice study: blood CD3+/CD4+ and CD3+/CD8+ by flow cytometry; assay type: in vivo, C57 mice; conditions: blood after last dose, cisplatin 4 mg/kg i.p., Kanglaite soft capsule 1404 mg/kg oral, GLP-2 low dose 130 mg/kg oral
Protocol: as §2
CD4^+and CD8^+content measurement: After the last dose, lymphocyte subtypes CD3^+/CD4^+and CD3^+/CD8^+in the blood were measured using flow cytometry.

[7] = D0, cisplatin 4 mg/kg i.p. alone or + GLP-2 low dose 50 mg/kg oral
[8] = D3, cisplatin 4 mg/kg i.p. alone or + GLP-2 low dose 50 mg/kg oral
[9] = D6, cisplatin 4 mg/kg i.p. alone or + GLP-2 low dose 50 mg/kg oral
[10] = D9, cisplatin 4 mg/kg i.p. alone or + GLP-2 low dose 50 mg/kg oral
[11] = D12, cisplatin 4 mg/kg i.p. alone or + GLP-2 low dose 50 mg/kg oral
[12] = D15, cisplatin 4 mg/kg i.p. alone or + GLP-2 low dose 50 mg/kg oral
[13] = D18, cisplatin 4 mg/kg i.p. alone or + GLP-2 low dose 50 mg/kg oral
[14] = D0, cisplatin 3 mg/kg i.p. alone or + GLP-2 low dose 50 mg/kg oral
[15] = D3, cisplatin 3 mg/kg i.p. alone or + GLP-2 low dose 50 mg/kg oral
[16] = D6, cisplatin 3 mg/kg i.p. alone or + GLP-2 low dose 50 mg/kg oral
[17] = D9, cisplatin 3 mg/kg i.p. alone or + GLP-2 low dose 50 mg/kg oral
[18] = D12, cisplatin 3 mg/kg i.p. alone or + GLP-2 low dose 50 mg/kg oral
[19] = D15, cisplatin 3 mg/kg i.p. alone or + GLP-2 low dose 50 mg/kg oral
[20] = D18, cisplatin 3 mg/kg i.p. alone or + GLP-2 low dose 50 mg/kg oral
[21] = 18 days, cisplatin 3 mg/kg i.p. alone or + GLP-2 low dose 50 mg/kg oral
[22] = 14 days, cisplatin 4 mg/kg i.p.

## N.N.[Cl][Pt][Cl] [Cisplatin]
LLC-bearing mice; [7]
  Tumor volume: 193 ± 41.9 mm^3
LLC-bearing mice; [8]
  Tumor volume: 350.8 ± 138.5 mm^3
LLC-bearing mice; [9]
  Tumor volume: 692.4± 215.3^+ mm^3
LLC-bearing mice; [10]
  Tumor volume: 956.4± 394^+ mm^3
LLC-bearing mice; [11]
  Tumor volume: 1186.6± 386.4^+ mm^3
LLC-bearing mice; [12]
  Tumor volume: 1388.9± 448.2^+ mm^3
LLC-bearing mice; [13]
  Tumor volume: 1679.8± 439^+ mm^3
LLC-bearing mice; by tumor weight, cisplatin 4 mg/kg i.p. alone or + GLP-2 low dose 50 mg/kg oral
  Tumor growth inhibition rate vs. the model control group: 67.3%
[1]; 18 days, cisplatin 4 mg/kg i.p. alone or + GLP-2 low dose 50 mg/kg oral
  Number of deaths: 2
[1]; [7]
  Weight: 20.8 ± 1.4 g
[1]; [8]
  Weight: 20.7 ± 1.3 g
[1]; [9]
  Weight: 20.4 ± 1 g
[1]; [10]
  Weight: 19.7± 0.8*^+ g
[1]; [11]
  Weight: 18.5 ± 0.6*+ g
[1]; [12]
  Weight: 18.2± 1.2*^+ g
[1]; [13]
  Weight: 17.9± 1.4*^+ g
[1]; cisplatin 4 mg/kg i.p. alone or + GLP-2 low dose 50 mg/kg oral
  Survival time: 17.1 ± 1.9 days
H22-bearing mice; [14]
  Tumor volume: 167.9 ± 42.2 mm^3
H22-bearing mice; [15]
  Tumor volume: 205.9 ± 122.5 mm^3
H22-bearing mice; [16]
  Tumor volume: 417.4 ± 228.3 mm^3
H22-bearing mice; [17]
  Tumor volume: 577.3 ± 420.2 mm^3
H22-bearing mice; [18]
  Tumor volume: 798± 676.5^+ mm^3
H22-bearing mice; [19]
  Tumor volume: 952.7± 711.9^+ mm^3
H22-bearing mice; [20]
  Tumor volume: 1097± 805.3^+ mm^3
H22-bearing mice
  Tumor growth inhibition rate vs. the model control group: 57.3^+ %
H22-bearing mice; listed as cisplatin
  Tumor growth inhibition rate vs. the model control group: 57.3%
[2]; [21]
  Mortality rate: 0.0%
  Number of deaths: 0
[2]; [14]
  Weight: 20.6 ± 1.3 g
[2]; [15]
  Weight: 20.8 ± 1.3 g
[2]; [16]
  Weight: 21 ± 1.3 g
[2]; [17]
  Weight: 21 ± 1.5 g
[2]; [18]
  Weight: 20.7± 1.4^+ g
[2]; [19]
  Weight: 20.5± 1.4^+ g
[2]; [20]
  Weight: 19.9± 1.7^+ g
[2]; cisplatin 3 mg/kg i.p. alone or + GLP-2 low dose 50 mg/kg oral
  Survival time: 18 ± 0 days
[3]; W0, cisplatin 4 mg/kg i.p.
  Tumor: 3756000 ± 2439052 P/s/cm^2/sr
[3]; W1, cisplatin 4 mg/kg i.p.
  Tumor: 12898500 ± 3588676 P/s/cm^2/sr
[3]; W2, cisplatin 4 mg/kg i.p.
  Tumor: 11871333 ± 2780016^& P/s/cm^2/sr
[4]; [22]
  Mortality rate: 50.0%
  Number of deaths: 3
  Number of surviving animals: 3
[4]; W0, cisplatin 4 mg/kg i.p.
  Weight: 18.5 ± 1.3 g
[4]; W1, cisplatin 4 mg/kg i.p.
  Weight: 16.9 ± 1.8 g
[4]; W2, cisplatin 4 mg/kg i.p.
  Weight: 15.1 ± 1.6 g
[4]; cisplatin 4 mg/kg i.p.
  Liver coefficient: 11.365 ± 3.599%
  Spleen coefficient: 0.524± 0.295 %
  Thymus coefficient: 0.078 ± 0.023 %
[5]
  ALT: 115 ± 39 U/L
  AST: 771 ± 153 UL
  BUN: 13.52 ± 4.94 mmol/L
  CRE: 18.9 ± 2.7 µmol/L
  RBC: 8.91 ± 0.22 10^12/L
  WBC: 4.41 ± 1.83 10^9/L
[6]
  CD3^+/CD4^+: 4.26 ± 0.04
  CD3^+/CD8^+: 4.21 ± 0.81
